Experimental data as given in US20240041042A1, “1-(PYRIDYL)-5-AZINYLPYRAZOLE DERIVATIVES, AND THEIR USE FOR CONTROL OF UNDESIRED PLANT GROWTH” (Bayer Aktiengesellschaft, priority 2020, published 2024).
Where two headings read alike, the source gives them in different places.

Experiments:
Type in all cases: in vivo
[1] = system: Pharbitis purpurea (PHBPU); experiment: Pre-emergence herbicidal action against PHBPU
Procedure, shortened: (§1)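 Read-out is visual percent damage relative to untreated pots, with 100% meaning dead plants and 0% meaning no difference, assessed roughly three weeks after treatment. Compounds were applied pre-emergence to the covering soil at up to 320 g/ha.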

Setaria viridis (SETVI) [2] = experiment: Post-emergence herbicidal action against SETVI; details: dosage 80 g/ha
Procedure, shortened: (§2)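 Values are percent visual activity (0% like control, 100% plants dead) after about 3 weeks in the greenhouse. Treatment: post-emergence spray at one-leaf stage, 600 l/ha spray volume, 0.5% additive, doses 320 g/ha or lower.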

Viola tricolor (VIOTR) = experiment: Pre-emergence herbicidal action against VIOTR
Procedure, shortened: as §1

[3] = system: Pharbitis purpurea (PHBPU); experiment: Post-emergence herbicidal action against PHBPU; details: dosage 80 g/ha
Procedure, shortened: as §2

[4] = system: Polygonum convolvulus (POLCO); experiment: Post-emergence herbicidal action against POLCO; details: dosage 80 g/ha
Procedure, shortened: as §2

[5] = system: Abutilon theophrasti (ABUTH); experiment: Post-emergence herbicidal action against ABUTH; details: 80 g/ha, visual rating about 3 weeks after treatment vs untreated controls (100% = plants have died, 0% = like control plants)
Procedure, shortened: as §2

[6] = system: Echinochloa crus-galli (ECHCG); experiment: Pre-emergence herbicidal action against ECHCG
Procedure, shortened: as §1

[7] = system: Amaranthus retroflexus (AMARE); experiment: Post-emergence herbicidal action against AMARE; details: 80 g/ha, visual rating about 3 weeks after treatment vs untreated controls (100% = plants have died, 0% = like control plants)
Procedure, shortened: as §2

Setaria viridis (SETVI) [8] = experiment: Pre-emergence herbicidal action against SETVI
Procedure, shortened: as §1

[9] = system: Matricaria inodora (MATIN); experiment: Pre-emergence herbicidal action against MATIN
Procedure, shortened: as §1

[10] = system: Verconica persica (VERPE); experiment: Post-emergence herbicidal action against VERPE; details: dosage 80 g/ha
Procedure, shortened: as §2

Avena fatua (AVEFA) [11] = experiment: Post-emergence herbicidal action against AVEFA; details: 80 g/ha, visual rating about 3 weeks after treatment
Procedure, shortened: as §2

[12] = system: Verconica persica (VERPE); experiment: Pre-emergence herbicidal action against VERPE
Procedure, shortened: as §1

[13] = system: Abutilon theophrasti (ABUTH); experiment: Pre-emergence herbicidal action against ABUTH; details: 100% = plants have died
Procedure, shortened: as §1

[14] = system: Polygonum convolvulus (POLCO); experiment: Pre-emergence herbicidal action against POLCO
Procedure, shortened: as §1

[15] = system: Amaranthus retroflexus (AMARE); experiment: Pre-emergence herbicidal action against AMARE; details: visual scoring after about 3 weeks vs untreated controls
Procedure, shortened: as §1

[16] = system: Alopecurus myosuroides (ALOMY); experiment: Post-emergence herbicidal action against ALOMY; details: 80 g/ha, visual rating about 3 weeks after treatment vs untreated controls (100% = plants have died, 0% = like control plants)
Procedure, shortened: as §2

Lolium rigidum (LOLRI) [17] = experiment: Pre-emergence herbicidal action against LOLRI
Procedure, shortened: as §1

Oryza sativa (ORYSA) = details: crop plant compatibility
Procedure, shortened: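 Foliar application at the one-leaf stage: WP/EC formulation, 0.5% additive, 600 l/ha water. Greenhouse-grown in sandy loam. Endpoint is visual % injury relative to untreated controls at about 3 weeks.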

Avena fatua (AVEFA) [18] = experiment: Pre-emergence herbicidal action against AVEFA; details: 320 g/ha, visual scoring after about 3 weeks vs untreated controls
Procedure, shortened: as §1

[19] = system: Alopecurus myosuroides (ALOMY); experiment: Pre-emergence herbicidal action against ALOMY; details: scored visually after about 3 weeks, 100% = plants have died
Procedure, shortened: as §1

[20] = system: Echinochloa crus-galli (ECHCG); experiment: Post-emergence herbicidal action against ECHCG; details: dosage 80 g/ha
Procedure, shortened: as §2

Lolium rigidum (LOLRI) [21] = experiment: Post-emergence herbicidal action against LOLRI; details: dosage 80 g/ha
Procedure, shortened: as §2

[22] = 80 g/ha, scored visually after about 3 weeks vs untreated controls, 0% = like control plants
[23] = Dosage column 320 g/ha (title prints 3200 g/ha), scored visually after about 3 weeks
[24] = 20 g/ha, effect vs untreated controls
[25] = 80 g/ha, effect in comparison to untreated controls

| Compound | Pre-emergence action against PHBPU in % ([1]; dosage 320 g/ha) | Post-emergence action against SETVI in % (Setaria viridis (SETVI) [2]) | Pre-emergence action against VIOTR in % (Viola tricolor (VIOTR); 320 g/ha, Viola tricolor) | Pre-emergence action against VIOTR in % (Viola tricolor (VIOTR); dosage 80 g/ha) | Post-emergence action against PHBPU in % [3] | Post-emergence action against POLCO in % [4] | Post-emergence action against ABUTH in % [5] | Pre-emergence action against ECHCG in % ([6]; dosage 320 g/ha) | Post-emergence action against AMARE in % [7] | Pre-emergence action against SETVI in % (Setaria viridis (SETVI) [8]; dosage 80 g/ha) | Pre-emergence action against SETVI in % (Setaria viridis (SETVI) [8]; dosage 320 g/ha) | Pre-emergence action against MATIN in % ([9]; dosage 320 g/ha) | Post-emergence action against VERPE in % [10] | Post-emergence action against AVEFA in % (Avena fatua (AVEFA) [11]) | Pre-emergence action against VERPE in % ([12]; dosage 320 g/ha) | Pre-emergence action against ABUTH [13, 22] | Pre-emergence action against ABUTH [13, 23] | Pre-emergence action against POLCO in % ([14]; dosage 80 g/ha) | Pre-emergence action against POLCO in % ([14]; dosage 320 g/ha) | Pre-emergence action against AMARE in % ([15]; 80 g/ha) | further results |
| --- | --- | --- | --- | --- | --- | --- | --- | --- | --- | --- | --- | --- | --- | --- | --- | --- | --- | --- | --- | --- | --- |
| C[C@@H](Oc1nn(-c2ccccn2)c(-c2cncc(F)c2)c1Br)C(=O)O [Example I-79] | 90% | 80% | 100% | 100% | 80% | 80% | 80% | 100% | 90% | 100% | 100% | 90% | 80% | 100% | 100% | 80% | 90% | 90% | 90% | 100% | Pre-emergence action against PHBPU in % ([1]; dosage 80 g/ha): 90%; Pre-emergence action against ECHCG in % ([6]; dosage 80 g/ha): 80%; Pre-emergence action against MATIN in % ([9]; dosage 80 g/ha): 80%; Pre-emergence action against VERPE in % ([12]; dosage 80 g/ha): 80%; Pre-emergence action against AMARE in % ([15]; 320 g/ha): 100%; Post-emergence action against ALOMY in % [16]: 80%; Pre-emergence action against LOLRI in % (Lolium rigidum (LOLRI) [17]; dosage 80 g/ha): 100%; Pre-emergence action against LOLRI in % (Lolium rigidum (LOLRI) [17]; dosage 320 g/ha): 100%; Post-emergence action against ORYSA in % (Oryza sativa (ORYSA); [24]): 0%; Post-emergence action against ORYSA in % (Oryza sativa (ORYSA); [25]): 0%; Pre-emergence action against AVEFA in % (Avena fatua (AVEFA) [18]): 100%; Pre-emergence action against ALOMY ([19]; 80 g/ha): 90%; Pre-emergence action against ALOMY ([19]; 320 g/ha): 100% |
| COC(=O)CCOC(=O)[C@@H](C)Oc1nn(-c2ccccn2)c(-c2cncc(F)c2)c1Br [Example I-73] | 90% | 80% | 100% | 100% | 90% | 90% | 80% | 90% | 90% | 90% | 100% | 90% | 80% | 80% | 100% | 80% | 90% | 80% | 90% | 100% | Post-emergence action against ECHCG in % [20]: 80%; Post-emergence action against LOLRI in % (Lolium rigidum (LOLRI) [21]): 80%; Pre-emergence action against AMARE in % ([15]; 320 g/ha): 100%; Post-emergence action against ALOMY in % [16]: 100%; Pre-emergence action against LOLRI in % (Lolium rigidum (LOLRI) [17]; dosage 80 g/ha): 100%; Pre-emergence action against LOLRI in % (Lolium rigidum (LOLRI) [17]; dosage 320 g/ha): 100%; Post-emergence action against ORYSA in % (Oryza sativa (ORYSA); [24]): 0%; Post-emergence action against ORYSA in % (Oryza sativa (ORYSA); [25]): 10%; Pre-emergence action against AVEFA in % (Avena fatua (AVEFA) [18]): 80%; Pre-emergence action against ALOMY ([19]; 80 g/ha): 90%; Pre-emergence action against ALOMY ([19]; 320 g/ha): 100% |
